Results on 27 compounds are retold here after patent US20150252022A1, “RETINOIC ACID RECEPTOR-RELATED ORPHAN RECEPTOR MODULATORS AND USES THEREOF” (INNOV17 LLC, priority 2014, published 2015).

Common to all, as to format: cell-based
What all share (settings): 72 h; human CD4+ T cells under TH17-polarizing conditions, 3 days, supernatant ELISA

For one experiment, the system named is IL-17F. Nature of the experiment: Human TH17 Cytokine Inhibition as measured by ELISA (IL-17F). The procedure: (§1) Peripheral blood mononuclear cells (PBMCs) were sourced from freshly prepared leukocyte enriched plasma (buffy coat) from healthy donors (New York Blood Center). PBMCs were isolated by density gradient centrifugation using Ficoll-Paque™ PLUS (GE Healthcare). Human CD4+ T cells were seeded into 96-well plates (5×10^4 cells/well) and activated with plate-bound anti-human (h)-CD3 antibody and soluble h-aCD28 (both at 1 ug/ml; eBioscience) and differentiated into TH17 cells with 20 ng/mL h-IL-6, 5 ng/mL h-TGF-β1, 10 ng/mL h-IL-23 (eBioscience) and 10 ng/mL IL-1β (Miltenyi Biotec) in serum-free TexMACS Medium (Miltenyi Biotec) supplemented with 1% Penicillin/Streptomycin (Lonza) for 3 days. CD4+ T cells propagated under TH17-polarizing conditions were cultured in the presence or absence of various concentrations of compounds with a final concentration of 0.1% DMSO. Supernatants were collected and stored at −20° C. until assayed for IL-17A, IL-17F and IL-21 levels by “Ready-Set-Go” ELISA kits (eBioscience) as per manufacturer's instructions. Endpoint absorbance was read at 450 nm using a microplate reader (Perkin Elmer).
A general note: In an ELISA, binding on a coated surface is turned into a signal by an enzyme label.

The test system of the next experiment is IL-21. Nature of the experiment: Human TH17 Cytokine Inhibition as measured by ELISA (IL-21). The protocol: as §1
The subject of a further experiment is IL-17A. Nature of the experiment: Human TH17 Cytokine Inhibition as measured by ELISA (IL-17A). The procedure:
as §1

For orientation: IC50 means the point on the concentration scale where inhibition reaches its midpoint. In the case of `Cc1cc2cc(-c3cn[nH]c3)ccc2n1CC1CC(C)N(C(=O)CCc2ccccc2)C1` (racemic) [Example 131, rac-1-(2-methyl-4-((2-methyl-5-(1H-pyrazol-4-yl)-1H-indol-1-yl)methyl)pyrrolidin-1-yl)-3-phenylpropan-1-one], the IC50 in the experiment with IL-17F, in the experiment with IL-21 and with IL-17A was under 10 µM in each case.
With `C[C@H]1C[C@@H](Cn2ccc3cc(-c4cn[nH]c4)ccc32)CN1C(=O)CCc1ccccc1` (relative stereo) [Example 127, cis-1-(4-((5-(1H-pyrazol-4-yl)-1H-indol-1-yl)methyl)-2-methylpyrrolidin-1-yl)-3-phenylpropan-1-one], the IC50 in the experiment with IL-17F, in the experiment on IL-21 and in the experiment on IL-17A was under 10 µM each time.
For the compound `C[C@@H]1C[C@@H](Cn2ccc3cc(-c4cn[nH]c4)ccc32)CN1C(=O)CCc1ccccc1` (relative stereo) [Example 129, trans-1-(4-((5-(1H-pyrazol-4-yl)-1H-indol-1-yl)methyl)-2-methylpyrrolidin-1-yl)-3-phenylpropan-1-one], the IC50 in the experiment on IL-17F, in the experiment on IL-21 and in the experiment on IL-17A was under 10 µM throughout.
On to `O=C(c1ccccc1)N1CCC(CN2CCc3cc(-c4cn[nH]c4)ccc32)C1` (centres unmarked) [Example 9, (3-((5-(1H-pyrazol-4-yl)indolin-1-yl)methyl)pyrrolidin-1-yl)(phenyl)methanone], for which the results for the IC50 in the experiment with IL-17F, in the experiment on IL-21 and in the experiment with IL-17A were over 10 µM, over 10 µM and under 10 µM, respectively.
On to `O=C(Cc1ccccc1)N1CCC(CN2CCc3cc(-c4cn[nH]c4)ccc32)C1` (centres unmarked) [Example 10, 1-(3-((5-(1H-pyrazol-4-yl)indolin-1-yl)methyl)pyrrolidin-1-yl)-2-phenylethanone], for which the IC50 in the experiment with IL-17F, with IL-21 and in the experiment with IL-17A was under 10 µM each time.
With `O=C(CCc1ccccc1)N1CCC(CN2CCc3cc(-c4cn[nH]c4)ccc32)C1` (centres unmarked) [Example 11, 1-(3-((5-(1H-pyrazol-4-yl)indolin-1-yl)methyl)pyrrolidin-1-yl)-3-phenylpropan-1-one], the IC50 in the experiment on IL-17F, in the experiment on IL-21 and in the experiment on IL-17A was under 10 µM in each case.
Consider `O=C(C1CCCCC1)N1CCC(CN2CCc3cc(-c4cn[nH]c4)ccc32)C1` (centres unmarked) [Example 12, (3-((5-(1H-pyrazol-4-yl)indolin-1-yl)methyl)pyrrolidin-1-yl)(cyclohexyl)methanone], for which the values for the IC50 in the experiment on IL-17F, in the experiment on IL-21 and with IL-17A were under 10 µM, over 10 µM and under 10 µM, respectively.
`O=C(CC1CCCCC1)N1CCC(CN2CCc3cc(-c4cn[nH]c4)ccc32)C1` (centres unmarked) [Example 13, 1-(3-((5-(1H-pyrazol-4-yl)indolin-1-yl)methyl)pyrrolidin-1-yl)-2-cyclohexylethanone]: the values for the half-maximal inhibitory concentration (IC50) in the experiment on IL-17F, in the experiment with IL-21 and in the experiment with IL-17A were under 10 µM, over 10 µM and under 10 µM, respectively.
Consider `CC(C)CC(=O)N1CCC(CN2CCc3cc(-c4cn[nH]c4)ccc32)C1` (centres unmarked) [Example 14, 1-(3-((5-(1H-pyrazol-4-yl)indolin-1-yl)methyl)pyrrolidin-1-yl)-3-methylbutan-1-one], for which the IC50 in the experiment on IL-17F was under 10 µM; in the experiment with IL-21 it was over 10 µM; in the experiment on IL-17A, under 10 µM.
Take `CC(C)C(=O)N1CCC(CN2CCc3cc(-c4cn[nH]c4)ccc32)C1` (centres unmarked) [Example 15, 1-(3-((5-(1H-pyrazol-4-yl)indolin-1-yl)methyl)pyrrolidin-1-yl)-2-methylpropan-1-one]: the IC50 with IL-17F is over 10 µM; with IL-21, under 10 µM; with IL-17A it was over 10 µM.
Take `CC1CC(CN2CCc3cc(-c4cn[nH]c4)ccc32)CN1C(=O)c1ccccc1` (centres unmarked) [Example 24, (4-((5-(1H-pyrazol-4-yl)indolin-1-yl)methyl)-2-methylpyrrolidin-1-yl)(phenyl)methanone]: the IC50 with IL-17F, in the experiment with IL-21 and in the experiment with IL-17A was under 10 µM each time.
For `CC1CC(CN2CCc3cc(-c4cn[nH]c4)ccc32)CN1C(=O)Cc1ccccc1` (centres unmarked) [Example 25, 1-(4-((5-(1H-pyrazol-4-yl)indolin-1-yl)methyl)-2-methylpyrrolidin-1-yl)-2-phenylethanone], the IC50 in the experiment on IL-17F, in the experiment with IL-21 and with IL-17A was under 10 µM in each case.
Take `CC1CC(CN2CCc3cc(-c4cn[nH]c4)ccc32)CN1C(=O)CCc1ccccc1` (centres unmarked) [Example 26, 1-(4-((5-(1H-pyrazol-4-yl)indolin-1-yl)methyl)-2-methylpyrrolidin-1-yl)-3-phenylpropan-1-one]: the IC50 in the experiment with IL-17F, in the experiment on IL-21 and in the experiment with IL-17A was under 10 µM each time.
With `CC1CC(CN2CCc3cc(-c4cn[nH]c4)ccc32)CN1C(=O)C1CCCCC1` (centres unmarked) [Example 27, (4-((5-(1H-pyrazol-4-yl)indolin-1-yl)methyl)-2-methylpyrrolidin-1-yl)(cyclohexyl)methanone], the IC50 in the experiment on IL-17F, in the experiment on IL-21 and in the experiment with IL-17A was under 10 µM throughout.
As for `CC1CC(CN2CCc3cc(-c4cn[nH]c4)ccc32)CN1C(=O)CC1CCCCC1` (centres unmarked) [Example 28, 1-(4-((5-(1H-pyrazol-4-yl)indolin-1-yl)methyl)-2-methylpyrrolidin-1-yl)-2-cyclohexylethanone], the IC50 with IL-17F, with IL-21 and in the experiment on IL-17A was under 10 µM in each case.
Turning to `CC(C)CC(=O)N1CC(CN2CCc3cc(-c4cn[nH]c4)ccc32)CC1C` (centres unmarked) [Example 29, 1-(4-((5-(1H-pyrazol-4-yl)indolin-1-yl)methyl)-2-methylpyrrolidin-1-yl)-3-methylbutan-1-one], the IC50 with IL-17F, with IL-21 and in the experiment with IL-17A was under 10 µM each time.
Consider `CC(C)C(=O)N1CC(CN2CCc3cc(-c4cn[nH]c4)ccc32)CC1C` (centres unmarked) [Example 30, 1-(4-((5-(1H-pyrazol-4-yl)indolin-1-yl)methyl)-2-methylpyrrolidin-1-yl)-2-methylpropan-1-one], for which the IC50 with IL-17F, with IL-21 and in the experiment with IL-17A was under 10 µM in each case.
For the compound `O=C(c1ccccc1)N1CCC(CN2CCc3cc(-c4cn[nH]c4)ccc32)CC1` [Example 39, (4-((5-(1H-pyrazol-4-yl)indolin-1-yl)methyl)piperidin-1-yl)(phenyl)methanone], the IC50 in the experiment on IL-17F was under 10 µM; in the experiment on IL-21, over 10 µM; in the experiment on IL-17A it was under 10 µM.
With `O=C(Cc1ccccc1)N1CCC(CN2CCc3cc(-c4cn[nH]c4)ccc32)CC1` [Example 40, 1-(4-((5-(1H-pyrazol-4-yl)indolin-1-yl)methyl)piperidin-1-yl)-2-phenylethanone], the IC50 in the experiment with IL-17F, in the experiment on IL-21 and in the experiment with IL-17A was under 10 µM throughout.
Take `O=C(CCc1ccccc1)N1CCC(CN2CCc3cc(-c4cn[nH]c4)ccc32)CC1` [Example 41, 1-(4-((5-(1H-pyrazol-4-yl)indolin-1-yl)methyl)piperidin-1-yl)-3-phenylpropan-1-one]: the IC50 in the experiment with IL-17F, with IL-21 and in the experiment on IL-17A was under 10 µM each time.
As for `O=C(C1CCCCC1)N1CCC(CN2CCc3cc(-c4cn[nH]c4)ccc32)CC1` [Example 42, (4-((5-(1H-pyrazol-4-yl)indolin-1-yl)methyl)piperidin-1-yl)(cyclohexyl)methanone], the IC50 with IL-17F, in the experiment on IL-21 and with IL-17A was under 10 µM in each case.
Regarding `O=C(CC1CCCCC1)N1CCC(CN2CCc3cc(-c4cn[nH]c4)ccc32)CC1` [Example 43, 1-(4-((5-(1H-pyrazol-4-yl)indolin-1-yl)methyl)piperidin-1-yl)-2-cyclohexylethanone], the half-maximal inhibitory concentration (IC50) in the experiment with IL-17F, in the experiment with IL-21 and in the experiment on IL-17A was under 10 µM each time.
`CC(C)CC(=O)N1CCC(CN2CCc3cc(-c4cn[nH]c4)ccc32)CC1` [Example 44, 1-(4-((5-(1H-pyrazol-4-yl)indolin-1-yl)methyl)piperidin-1-yl)-3-methylbutan-1-one]: the half-maximal inhibitory concentration (IC50) with IL-17F was under 10 µM; with IL-21, over 10 µM; in the experiment on IL-17A it was under 10 µM.
For `CC(C)C(=O)N1CCC(CN2CCc3cc(-c4cn[nH]c4)ccc32)CC1` [Example 45, 1-(4-((5-(1H-pyrazol-4-yl)indolin-1-yl)methyl)piperidin-1-yl)-2-methylpropan-1-one], the IC50 in the experiment on IL-17F, in the experiment on IL-21 and in the experiment on IL-17A was over 10 µM each time.
On to `O=C(c1ccccc1)N1CCCC(CN2CCc3cc(-c4cn[nH]c4)ccc32)CC1` (centres unmarked) [Example 54, (4-((5-(1H-pyrazol-4-yl)indolin-1-yl)methyl)azepan-1-yl)(phenyl)methanone], for which the IC50 with IL-17F, with IL-21 and with IL-17A was under 10 µM throughout.
For `O=C(Cc1ccccc1)N1CCCC(CN2CCc3cc(-c4cn[nH]c4)ccc32)CC1` (centres unmarked) [Example 55, 1-(4-((5-(1H-pyrazol-4-yl)indolin-1-yl)methyl)azepan-1-yl)-2-phenylethanone], the IC50 in the experiment with IL-17F, in the experiment with IL-21 and with IL-17A was under 10 µM in each case.
Turning to `O=C(c1ccccc1)N1CCC(Cn2ccc3cc(-c4cn[nH]n4)ccc32)CC1` [Example 130, (4-((5-(2H-1,2,3-triazol-4-yl)-1H-indol-1-yl)methyl)piperidin-1-yl)(phenyl)methanone], the IC50 with IL-17F and in the experiment with IL-17A was under 10 µM in each case.
